Data reported in the supplement of paper PMC8617591.

Tests used:
[1] = tested on: Mycobacterium tuberculosis Erdman (autoluminescent); test: total FIC90 (Loewe) at 90% inhibition, three-drug combination (log2); higher = more antagonistic
Protocol: (§1)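 DiaMOND equipotent three-drug combination dose responses (10 doses, 1.5- or 2-fold spacing, centred on IC90) against autoluminescent M. tuberculosis Erdman in 8 in vitro models. Read-out is OD600, or luminescence for the intracellular and dormancy models, normalised to untreated wells. Hill-fit Einf, AUC25 and GRinf are potency metrics; FIC50 and FIC90 are total Loewe fractional inhibitory concentrations as log2 (negative = synergy).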

[2] = tested on: Mycobacterium tuberculosis Erdman (autoluminescent); test: Einf, fitted maximum growth inhibition of three-drug combination (fraction); higher = stronger maximal inhibition
Protocol: as §1

[3] = tested on: Mycobacterium tuberculosis Erdman (autoluminescent); test: total FIC50 (Loewe) at 50% inhibition, three-drug combination (log2); higher = more antagonistic
Protocol: as §1

[4] = tested on: Mycobacterium tuberculosis Erdman (autoluminescent); test: GRinf, maximum normalised growth rate inhibition (three-drug combination) (unitless (-1 to 1)); higher = less effect (negative = killing)
Protocol: as §1

[5] = tested on: Mycobacterium tuberculosis Erdman (autoluminescent); test: AUC25, normalised area under dose response up to IC25 (three-drug combination) (fraction (0-1)); higher = more potent at low dose
Protocol: as §1

CC(C)/N=c1\cc2n(-c3ccc(Cl)cc3)c3ccccc3nc-2cc1Nc1ccc(Cl)cc1 [clofazimine] + NNC(=O)c1ccncc1 [isoniazid] + CO[C@H]1/C=C/O[C@@]2(C)Oc3c(C)c(O)c4c(O)c(c(/C=N/N5CCN(C)CC5)c(O)c4c3C2=O)NC(=O)/C(C)=C\C=C\[C@H](C)[C@H](O)[C@@H](C)[C@@H](O)[C@@H](C)[C@H](OC(C)=O)[C@@H]1C [rifampicin]
Settings	AUC25, [5]	Einf, [2]	GRinf, [4]	total FIC50, [3]	total FIC90, [1]
in vitro model: acidic pH 5.7, time point: constant (~7 days, model-specific)	0.0827	0.859	-0.00905	0.524	–
in vitro model: acidic pH 5.7, time point: terminal (~4-5 doublings, model-specific)	0.0711	0.977	-0.102	0.542	0.223
in vitro model: intracellular J774, time point: constant = terminal	–	0.983	-0.28	–	0.112

Settings	AUC25, [5]	Einf, [2]	GRinf, [4]	total FIC50, [3]	total FIC90, [1]
in vitro model: butyrate, time point: constant (~7 days, model-specific)	0.107	0.958	-0.146	0.388	0.605
in vitro model: butyrate, time point: terminal (~4-5 doublings, model-specific)	0.082	0.978	-0.104	0.318	0.248
in vitro model: cholesterol 0.05 mM, time point: constant (~7 days, model-specific)	0.102	0.662	0.064	0.74	–
in vitro model: cholesterol 0.05 mM, time point: terminal (~4-5 doublings, model-specific)	0.0787	0.896	0.0504	1.25	-0.29
in vitro model: cholesterol-high 0.2 mM, time point: constant (~7 days, model-specific)	0.0653	0.891	-0.205	0.286	–
in vitro model: cholesterol-high 0.2 mM, time point: terminal (~4-5 doublings, model-specific)	0.0563	0.996	-0.68	0.929	0.197
in vitro model: dormancy (butyrate + nitrate, low O2), time point: constant (~7 days, model-specific)	0.0885	0.876	0.253	-0.0155	-0.596
in vitro model: dormancy (butyrate + nitrate, low O2), time point: terminal (~4-5 doublings, model-specific)	0.0839	0.988	-0.19	-0.403	0.28
in vitro model: standard 7H9 glycerol, time point: constant = terminal	0.112	0.945	-0.018	-0.19	0.0305
in vitro model: valerate, time point: constant (~7 days, model-specific)	0.112	0.866	-0.116	0.565	–
in vitro model: valerate, time point: terminal (~4-5 doublings, model-specific)	0.0604	0.918	0.0831	0.286	0.147

CC(C)/N=c1\cc2n(-c3ccc(Cl)cc3)c3ccccc3nc-2cc1Nc1ccc(Cl)cc1 [clofazimine] + NNC(=O)c1ccncc1 [isoniazid] + COc1c(N2C[C@@H]3CCCN[C@@H]3C2)c(F)cc2c(=O)c(C(=O)O)cn(C3CC3)c12 [moxifloxacin]
Settings	AUC25, [5]	Einf, [2]	GRinf, [4]	total FIC50, [3]	total FIC90, [1]
in vitro model: acidic pH 5.7, time point: constant (~7 days, model-specific)	0.148	0.438	0.301	–	–
in vitro model: acidic pH 5.7, time point: terminal (~4-5 doublings, model-specific)	0.0974	0.923	-0.33	0.581	0.708
in vitro model: intracellular J774, time point: constant = terminal	–	1	-0.424	–	0.642

Settings	AUC25, [5]	Einf, [2]	GRinf, [4]	total FIC50, [3]	total FIC90, [1]
in vitro model: butyrate, time point: constant (~7 days, model-specific)	0.0935	0.949	-0.0926	0.57	1.04
in vitro model: butyrate, time point: terminal (~4-5 doublings, model-specific)	0.0779	0.981	-0.0848	0.531	0.768
in vitro model: cholesterol 0.05 mM, time point: constant (~7 days, model-specific)	0.131	0.707	-0.174	0.411	–
in vitro model: cholesterol 0.05 mM, time point: terminal (~4-5 doublings, model-specific)	0.119	0.919	-0.228	0.344	0.0839
in vitro model: cholesterol-high 0.2 mM, time point: constant (~7 days, model-specific)	0.102	0.943	-0.266	0.253	0.868
in vitro model: cholesterol-high 0.2 mM, time point: terminal (~4-5 doublings, model-specific)	0.0858	1	-0.61	0.464	0.399
in vitro model: dormancy (butyrate + nitrate, low O2), time point: constant (~7 days, model-specific)	0.094	0.929	0.151	0.252	-0.33
in vitro model: dormancy (butyrate + nitrate, low O2), time point: terminal (~4-5 doublings, model-specific)	0.0919	0.988	-0.177	0.0561	1.09
in vitro model: standard 7H9 glycerol, time point: constant = terminal	0.0829	0.977	-0.209	0.374	0.44
in vitro model: valerate, time point: constant (~7 days, model-specific)	0.079	0.84	0.0938	0.474	–
in vitro model: valerate, time point: terminal (~4-5 doublings, model-specific)	0.0672	0.917	0.0935	0.256	0.99

CC(C)/N=c1\cc2n(-c3ccc(Cl)cc3)c3ccccc3nc-2cc1Nc1ccc(Cl)cc1 [clofazimine] + NNC(=O)c1ccncc1 [isoniazid] + NC(=O)c1cnccn1 [pyrazinamide]
Settings	AUC25, [5]	Einf, [2]	GRinf, [4]	total FIC50, [3]	total FIC90, [1]
in vitro model: acidic pH 5.7, time point: constant (~7 days, model-specific)	0.105	0.819	-0.294	0.25	–
in vitro model: acidic pH 5.7, time point: terminal (~4-5 doublings, model-specific)	0.0972	0.977	-0.35	-0.0265	-0.409
in vitro model: intracellular J774, time point: constant = terminal	–	0.964	-0.705	–	0.267

Settings	AUC25, [5]	Einf, [2]	GRinf, [4]	total FIC50, [3]	total FIC90, [1]
in vitro model: butyrate, time point: constant (~7 days, model-specific)	0.112	0.953	-0.112	-0.201	0.915
in vitro model: butyrate, time point: terminal (~4-5 doublings, model-specific)	0.0804	0.968	-0.0686	-0.0738	0.168
in vitro model: cholesterol 0.05 mM, time point: constant (~7 days, model-specific)	0.131	0.74	-0.217	–	–
in vitro model: cholesterol 0.05 mM, time point: terminal (~4-5 doublings, model-specific)	0.132	0.924	-0.252	0.486	–
in vitro model: cholesterol-high 0.2 mM, time point: constant (~7 days, model-specific)	0.0931	0.938	-0.335	0.341	–
in vitro model: cholesterol-high 0.2 mM, time point: terminal (~4-5 doublings, model-specific)	0.0853	0.997	-0.517	0.634	0.384
in vitro model: dormancy (butyrate + nitrate, low O2), time point: constant (~7 days, model-specific)	0.0828	0.88	0.259	-0.675	-0.607
in vitro model: dormancy (butyrate + nitrate, low O2), time point: terminal (~4-5 doublings, model-specific)	0.0727	0.986	-0.174	-0.286	0.161
in vitro model: standard 7H9 glycerol, time point: constant = terminal	0.114	0.942	-0.135	0.447	–
in vitro model: valerate, time point: constant (~7 days, model-specific)	0.119	0.86	0.022	-0.0616	–
in vitro model: valerate, time point: terminal (~4-5 doublings, model-specific)	0.0674	0.933	0.0539	0.187	0.474
